This note sets out measurements from publication PMC2225439, “Amyloid as a Depot for the Formulation of Long-Acting Drugs” (PLoS Biology, 2008).

This data set is described as follows: Peptide release from amyloid (dialysis experiment). The note with it: dialysis of 30-d-old samples, 35 d. As to the method: Although amyloid fibrils are very stable, they must follow thermodynamic equilibrium conditions between fibril and monomer. […] A total of 200 μl of 30-d-old GnRH analog (in) was dialyzed 4 ml of 5% D-mannitol (out). A 3.5-kDa cutoff, which is twice the size of the peptides studied, was chosen to ensure that the released particles are most likely monomeric. The peptide release and the remaining aggregates were monitored by fluorescence over 35 d at room temperature.
A 200-μl aliquot of aged GnRH in solution conditions given above was transferred into a 0.6-ml Eppendorf tube with a hole in the cap. To study the effect of heparin on peptide release, a mixture of hormone analog and heparin (1:1 v/v) was incubated overnight in parallel with a half-diluted peptide fibril sample in 5% D-mannitol and 0.01% sodium azide. The hole in the cap of the Eppendorf tube was sealed with a 3.5-kDa molecular weight cutoff (MWCO) membrane. Next, the Eppendorf tube was inserted upside down into a 15-ml Falcon tube containing 4 ml of 5% D-mannitol in water and 0.01% sodium azide. Care was taken to make sure that the membrane was exposed to solutions both in and outside and that any bubbles at the membrane interface were removed. The tubes were then incubated at room temperature. To measure the remaining peptide concentration inside the 0.6-ml Eppendorf tube, a 5-μl aliquot was diluted into 500 μl water with 5% D-mannitol, 0.01% sodium azide, and the fluorescence was measured with excitation at 280 nm and emission in the range of 290–500 nm. The excitation slit width was 2 nm, and emission slit width was 11 nm. To determine the peptide concentration outside the membrane in the 15-ml tube, an aliquot of 250 μl of solution was taken from the releasing medium, diluted into 500 μl final volume by 5% D-mannitol, 0.01% sodium azide, and fluorescence was measured. Following spectra recording, the dialysis system was reassembled as described above. […] The normalized intensity maxima from inside and outside the membrane were plotted as a function of time and fit by an exponential function to extract the half-life of the fibrils and the K off, respectively. […] The extracted half-life, t 1/2, is the time taken, during which the fluorescence signal inside the 0.6-ml Eppendorf tube drops by 50%.

*1 amine or outer side, *2 acyl side, *3 side chain or, on linkers, in order; H or OH if unused. Where a SMILES comes first, the peptide text is derived from it. Side-chain parts run from the residue outwards. [ ]: non-standard residue; d: D form. The star is where a group is joined. dPhe(4-NHCONH2) = NC(=O)Nc1ccc(C[C@@H](N)C(=O)O)cc1; Dihydroorotyl(S) = O=C1C[C@@H](C(=O)*)NC(=O)N1; dPhe(4-NH2) = Nc1ccc(C[C@@H](N)C(=O)O)cc1; dPhe(4-Cl) = N[C@H](Cc1ccc(Cl)cc1)C(=O)O; Phe(4-NH2) = Nc1ccc(C[C@H](N)C(=O)O)cc1; d2Nal = N[C@H](Cc1ccc2ccccc2c1)C(=O)O; Lys(iPr) = CC(C)NCCCC[C@H](N)C(=O)O; NHCH2CH2OCH2CH2OEt = CCOCCOCCN*; d3Pal = N[C@H](Cc1cccnc1)C(=O)O; Methoxycarbamoyl = CONC(=O)*; Nicotinoyl = O=C(c1cccnc1)*; PEG3 = NCCOCCOCCOCCC(=O)O; CO = O=C([*:1])[*:2]; Butyryl = CCCC(=O)*

Take `CONC(=O)NCCOCCOCCOCCC(=O)Nc1ccc(C[C@H](NC(=O)[C@H](CO)NC(=O)[C@@H](Cc2cccnc2)NC(=O)[C@@H](Cc2ccc(Cl)cc2)NC(=O)[C@@H](Cc2ccc3ccccc3c2)NC(C)=O)C(=O)N[C@H](Cc2ccc(NC(N)=O)cc2)C(=O)N[C@@H](CC(C)C)C(=O)N[C@@H](CCCCNC(C)C)C(=O)N2CCC[C@H]2C(=O)N[C@H](C)C(N)=O)cc1` [S2, [Aph(CO-(C2H4O)3-C2H4-NH-CO-NH-OCH3)^5]degarelix] (Ac-[d2Nal][dPhe(4-Cl)][d3Pal]S[Phe(4-NH2)]([PEG3-Methoxycarbamoyl])[dPhe(4-NHCONH2)]L[Lys(iPr)]P[dA]-NH2): the “stability of fibrils from release profile (in words)” value is “form unstable fibrils”.
For `CCOCCOCCNC(=O)N[C@H](Cc1ccc2ccccc2c1)C(=O)N[C@H](Cc1ccc(Cl)cc1)C(=O)N[C@H](Cc1cccnc1)C(=O)N[C@@H](CO)C(=O)N[C@@H](Cc1ccc(NC(=O)[C@@H]2CC(=O)NC(=O)N2)cc1)C(=O)N[C@H](Cc1ccc(NC(=O)NOC)cc1)C(=O)N[C@@H](CC(C)C)C(=O)N[C@@H](CCCCNC(C)C)C(=O)N1CCC[C@H]1C(=O)N[C@H](C)C(N)=O` [S3, des-Ac-[D-Aph(CO-NH-OCH3)^6]-C2H5-(C2H4O)2-NH-CO-degarelix] ({NHCH2CH2OCH2CH2OEt-CO}-[d2Nal][dPhe(4-Cl)][d3Pal]S[Phe(4-NH2)](Dihydroorotyl(S))[dPhe(4-NH2)](Methoxycarbamoyl)L[Lys(iPr)]P[dA]-NH2), the “stability of fibrils from release profile (in words)” value is reported as “form very stable amyloids with very little peptide release”.
The result for `CCCC(=O)N[C@H](Cc1ccc2ccccc2c1)C(=O)N[C@H](Cc1ccc(Cl)cc1)C(=O)N[C@H](Cc1cccnc1)C(=O)N[C@@H](CO)C(=O)N[C@@H](Cc1ccc(NC(=O)NOC)cc1)C(=O)N[C@H](Cc1ccc(NC(=O)NOC)cc1)C(=O)N[C@@H](CC(C)C)C(=O)N[C@@H](CCCCNC(C)C)C(=O)N1CCC[C@H]1C(=O)N[C@H](C)C(N)=O` [S4, des-Ac-[Aph(CO-NH-OCH3)^5,D-Aph(CO-NH-OCH3)^6]-CH3-(CH2)2-CO-degarelix] (Butyryl-[d2Nal][dPhe(4-Cl)][d3Pal]S[Phe(4-NH2)](Methoxycarbamoyl)[dPhe(4-NH2)](Methoxycarbamoyl)L[Lys(iPr)]P[dA]-NH2) reads “form very stable amyloids with very little peptide release”; that for `CC(=O)N[C@H](Cc1ccc2ccccc2c1)C(=O)N[C@H](Cc1ccc(Cl)cc1)C(=O)N[C@H](Cc1cccnc1)C(=O)N[C@@H](CO)C(=O)N[C@@H](CCCCNC(=O)c1cccnc1)C(=O)N[C@H](CCCCNC(=O)c1cccnc1)C(=O)N[C@@H](CC(C)C)C(=O)N[C@@H](CCCCNC(C)C)C(=O)N1CCC[C@H]1C(=O)N[C@H](C)C(N)=O` [S6, Ac-DNal-DCpa-DPal-Ser-Lys(Nic)-DLys(Nic)-Leu-ILys-Pro-DAla-NH2, reference compound] (Ac-[d2Nal][dPhe(4-Cl)][d3Pal]SK(Nicotinoyl)[dK](Nicotinoyl)L[Lys(iPr)]P[dA]-NH2), “form unstable fibrils”; that for `CCOCCOCCNC(=O)Nc1ccc(C[C@@H](NC(=O)[C@H](Cc2ccc(NC(=O)[C@@H]3CC(=O)NC(=O)N3)cc2)NC(=O)[C@H](CO)NC(=O)[C@@H](Cc2cccnc2)NC(=O)[C@@H](Cc2ccc(Cl)cc2)NC(=O)[C@@H](Cc2ccc3ccccc3c2)NC(C)=O)C(=O)N[C@@H](CC(C)C)C(=O)N[C@@H](CCCCNC(C)C)C(=O)N2CCC[C@H]2C(=O)N[C@H](C)C(N)=O)cc1` [S11, [DAph(CONH(C2H4O)2-C2H5]degarelix] (Ac-[d2Nal][dPhe(4-Cl)][d3Pal]S[Phe(4-NH2)](Dihydroorotyl(S))[dPhe(4-NH2)]([CO-NHCH2CH2OCH2CH2OEt])L[Lys(iPr)]P[dA]-NH2), “form unstable fibrils”.
